# Measured values reported in patent publication US9550756B2, “Pyridazinone compounds as phosphodiesterase inhibitors and methods of treating disorders” (Takeda Pharmaceutical Company Limited, priority 2009, dated 2017).
# Test system: not given
# Test: not given
# Settings: not given
row,Compound,melting point [°C]
1,"O=c1ccn(-c2ccncc2)nc1-c1ccnn1-c1ccccc1 [Example 31, 3-(1-Phenyl-1H-pyrazol-5-yl)-1-pyridin-4-ylpyridazin-4(1H)-one]",202 to 203
2,"O=c1ccn(-c2cccc(Oc3nc4ccccc4[nH]3)c2)nc1-c1ccnn1-c1ccccc1 [Example 37, 1-[3-(1H-Benzimidazol-2-yloxy)phenyl]-3-(1-phenyl-1H-pyrazol-5-yl)pyridazin-4(1H)-one]",149 to 150
3,"O=c1c(OC(F)F)cn(-c2cccc(C(F)(F)F)c2)nc1-c1ccnn1-c1ccccc1 [Example 62, 5-(Difluoromethoxy)-3-(1-phenyl-1H-pyrazol-5-yl)-1-[3-(trifluoromethyl)phenyl]pyridazin-4(1H)-one]",132 to 134
4,"O=c1c(O)cn(-c2ccccc2F)nc1-c1ccnn1-c1ccccc1 [Example 63, 1-(2-Fluorophenyl)-5-hydroxy-3-(1-phenyl-1H-pyrazol-5-yl)pyridazin-4(1H)-one]",218 to 220
5,"CC(C)n1cc(-c2nn(-c3cccc(C(F)(F)F)c3)ccc2=O)c(-c2ccccc2)n1 [Example 77, 3-[1-(1-Methylethyl)-3-phenyl-1H-pyrazol-4-yl]-1-[3-(trifluoromethyl)phenyl]pyridazin-4(1H)-one]",138 to 140

# The remaining lines, values ahead:
row,melting point [°C],Compound
1,166 to 167,"O=c1ccn(-c2cccc(C(F)(F)F)c2)nc1-c1ccnn1-c1ccc(Cl)cc1 [Example 3, 3-[1-(4-Chlorophenyl)-1H-pyrazol-5-yl]-1-[3-(trifluoromethyl)phenyl]pyridazin-4(1H)-one]"
2,183 to 184,"CC(C)n1nccc1-c1nn(-c2cccc(C(F)(F)F)c2)ccc1=O [Example 33, 3-[1-(1-Methylethyl)-1H-pyrazol-5-yl]-1-[3-(trifluoromethyl)phenyl]pyridazin-4(1H)-one]"
3,120 to 121,"CC(C)Cn1nccc1-c1nn(-c2cccc(C(F)(F)F)c2)ccc1=O [Example 34, 3-[1-(2-Methylpropyl)-1H-pyrazol-5-yl]-1-[3-(trifluoromethyl)phenyl]pyridazin-4(1H)-one]"
4,189 to 190,"O=c1ccn(-c2cccc(C(F)(F)F)c2)nc1-c1ccnn1-c1ccccn1 [Example 35, 3-(1-Pyridin-2-yl-1H-pyrazol-5-yl)-1-[3-(trifluoromethyl)phenyl]pyridazin-4(1H)-one]"
5,167 to 168,"O=c1ccn(-c2cccc(C(F)(F)F)c2)nc1-c1ncnn1-c1ccccc1 [Example 42, 3-(1-Phenyl-1H-1,2,4-triazol-5-yl)-1-[3-(trifluoromethyl)phenyl]pyridazin-4(1H)-one]"

# Test system: Male ICR mice
# Test: Improvement of MK-801-induced prepulse inhibition (PPI) deficits
# Type: in vivo
# Settings: 0.3 mg/kg, MK-801 0.3 mg/kg s.c., FIG. 3
# Description: Male ICR mice were supplied by CLEA Japan, Inc (Japan). After arrival to the vivarium, animals were allowed a minimum of 1 week for acclimation. They were housed under a 12:12-h light/dark cycle in a temperature- and humidity-controlled laboratory and allowed food and water ad libitum. The care and use of the animals and the experimental protocols used in this research were approved by the Experimental Animal Care and Use Committee of Takeda Pharmaceutical Company, Ltd (Osaka, Japan).
# The compounds were suspended in 0.5% methylcellulose in saline or distilled water, and administered by intraperitoneally (i.p.) or orally (p.o.), respectively. Methamphetamine (Dainippon Sumitomo Pharma Co., Ltd.) and MK-801 (Sigma-Aldrich, St Louis, Mo.) were dissolved in saline, and administered subcutaneously (s.c.). […]
# PPI is a measure of sensorimotor gating and is one of a few neuropsychological measures in which humans and rodents can be evaluated in a similar fashion (Psychopharmacology (Berl) 2001, vol. 156: 117-154). We evaluated whether compound could reverse PPI deficits induced by MK-801 using male ICR mice. […] Placement of mice inside the cylinders allowed the whole-body startle responses induced by the acoustic stimuli to be measured via the transduction of movement into analog signals by a piezoelectric unit attached to the platform. […]
row,Compound,MK-801-induced PPI deficits
1,Cc1nc2n(c(=O)c1CCN1CCC(c3noc4cc(F)ccc34)CC1)CCCC2 [Risperidone],significantly reversed
